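Each compound was tested at five concentrations against cells in 96-well plates for 48 hours. GI50: concentration for 50% inhibition of growth. At the TGI there is no net growth.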

What all share (test): growth of human tumour cells (NCI), 48 h
The test system of experiment [1] is SW-620 colon.
Experiment [2] deals with MDA-MB-231 breast.
Experiment [3] relates to HCT-15 colon.
Experiment [4] concerns UACC-62 melanoma.
The subject of experiment [5] is T-47D breast.
The subject of experiment [6] is COLO 205 colon.
Experiment [7] concerns NCI-H226 lung.
Experiment [8] has as its system LOX IMVI melanoma.
The test system of experiment [9] is NCI-H522 lung.
Experiment [10] has as its system HOP-92 NSCLC.

In the case of `O=C1c2ccccc2C(=O)c2sc(Nc3ccccc3Cl)nc21`, the TGI in experiment [1] was found to be 8.97 µM; in [2], 13.7 µM; in [3], 29.6 µM; in experiment [4], 17.3 µM; in experiment [5], 34.5 µM; in experiment [6] it was 29 µM. For the same molecule, the TGI in experiment [7] was 28.6 µM; in experiment [8], 6.63 µM; in experiment [9], 9.61 µM; in [10], 27.9 µM.

For `O=C(c1ccccc1)n1c(-c2ccccc2)cs/c1=N\S(=O)(=O)c1ccc(N2N=C3c4ccccc4CC3C2c2cccs2)cc1` (stereo not drawn), the GI50 in experiment [1] is 58.8 µM; in experiment [2] it was 41.3 µM; in experiment [3] it was 61.4 µM; in experiment [4] it was 27.3 µM; in [5], > 100 µM; in experiment [6], 98.1 µM. Further, the GI50 in experiment [7] was 30.1 µM; in experiment [8], 30.7 µM; in experiment [9], 32.7 µM; in experiment [10], > 100 µM. The TGI in experiment [1] was > 100 µM; in experiment [2], > 100 µM; in [3], > 100 µM; in [4], 87.2 µM; in experiment [5] it was > 100 µM; in [6], > 100 µM. Besides, the TGI in experiment [7] was 85.2 µM; in experiment [8] it was > 100 µM; in [9], > 100 µM; in experiment [10] it was > 100 µM.

Turning to `O=S(=O)(Nc1ccc(F)c(Cl)c1)c1ccc(-c2cnc(C3CC3)o2)cc1`, the GI50 is 0.159 µM in [1]; 0.727 µM in [2]; 0.113 µM in [3]; 0.183 µM in experiment [4]; 0.361 µM in [5]; 0.375 µM in experiment [6]. Also, the GI50 was 0.822 µM in experiment [7], 0.401 µM in experiment [8], 0.164 µM in experiment [9] and 0.367 µM in experiment [10]. The TGI in experiment [1] worked out at 13.9 µM; in experiment [2], 11 µM; in [3], 11.2 µM; in experiment [4], 5.51 µM; in [5], 13.1 µM; in experiment [6], 4.69 µM. The TGI amounted to 10.1 µM in experiment [7], 13.5 µM in experiment [8], 3.75 µM in [9] and 3.94 µM in experiment [10].

`COc1ccc(Cn2cc3c(c2-c2ccccc2)CCc2cnoc2-3)cc1N`: the GI50 in experiment [1] was 0.0779 µM; in experiment [2] it was 1.03 µM; in experiment [3] it was 0.15 µM; in experiment [4] it was 0.182 µM; in experiment [5] it was 3.86 µM; in experiment [6] it was 1.32 µM. The GI50 in experiment [7] is 2.24 µM; in experiment [8], 0.766 µM; in [9], 0.027 µM. Moreover, the TGI is > 100 µM in [1]; > 100 µM in [2]; > 100 µM in experiment [3]; > 100 µM in experiment [4]; > 100 µM in [5]; 4.08 µM in experiment [6]. The TGI was > 100 µM in experiment [7], > 100 µM in experiment [8] and 0.339 µM in experiment [9].

Regarding `O=C1c2ccccc2C(=O)c2c(NCC3CO3)ccc(NCC3CO3)c21` (stereo not drawn), the TGI in experiment [1] is 6.04 µM; in experiment [2] it was 14.8 µM; in [3], > 22.5 µM; in experiment [5] it was > 42.1 µM; in experiment [6] it was 29.9 µM; in experiment [7] it was 35.4 µM. The TGI in [8] was determined as 0.0161 µM; in [9] it was 20.1 µM; in experiment [10], 38 µM.

Regarding `CN(C)c1ccc(/C=c2/c3ccccc3n3c2c2cc(F)ccc2[n+]3C)cc1`, the GI50 is 3.17 µM in experiment [1]; 13.4 µM in [2]; 18.8 µM in [3]; 3.42 µM in experiment [5]; 2.15 µM in experiment [6]; 11.7 µM in [8]. The results for the GI50 in [9] and in experiment [10] were 4.57 µM and 6.36 µM, respectively. For the same molecule, the TGI was 15.2 µM in experiment [1]; 34.5 µM in experiment [2]; > 57.6 µM in [3]; 6.12 µM in experiment [4]; 16.7 µM in [5]; 7.37 µM in experiment [6]. Also, the figures for the TGI in experiment [8], in [9] and in experiment [10] were > 100 µM, > 41.1 µM and 25.3 µM, respectively.

Take `COc1ccc(Nc2nc3cc(N)cc(N)c3nc2-c2ccccc2)cc1OC`: the GI50 in experiment [1] is 15.5 µM; in experiment [2], 4.92 µM; in experiment [3] it was 29 µM; in experiment [4], 13.4 µM; in experiment [5] it was 14.4 µM; in [6], 19.8 µM. Also, the figures for the GI50 in experiment [7], in [8] and in experiment [9] were 18.7 µM, 25.8 µM and 28.9 µM, respectively. For the same molecule, the TGI in experiment [1] was 35.9 µM; in experiment [2], 18.5 µM; in experiment [3] it was > 100 µM; in experiment [4], 27.4 µM; in [5], 38.2 µM; in experiment [6] it was 41.2 µM. The results for the TGI in [7], in experiment [8] and in experiment [9] were 57.1 µM, 72.2 µM and > 100 µM, respectively.

As for `COc1cc(C2C3=C(COC3=O)N(CCO)c3cc4c(cc32)OCO4)cc(OC)c1O` (stereo not drawn), the GI50 is 1.71 µM in [1]; 6.07 µM in experiment [2]; 8.01 µM in [3]; 1.97 µM in experiment [5]; 1.48 µM in experiment [6]; 3.72 µM in experiment [7]. For the same molecule, the figures for the GI50 in [8] and in experiment [9] were 2.5 µM and 0.0267 µM, respectively. Besides, the TGI in experiment [1] was > 50 µM; in experiment [2], 46.2 µM; in experiment [3] it was > 50 µM; in [4], > 50 µM; in experiment [5] it was > 50 µM; in experiment [6] it was 4.07 µM. Also, the TGI in [7] was > 50 µM; in experiment [8], > 50 µM; in experiment [9], 0.289 µM.

Regarding `Oc1[nH]c2ccccc2c1N=Nc1c(F)c(F)c(F)c(F)c1F`, the TGI in [1] is > 72.8 µM; in experiment [2], > 100 µM; in experiment [3], > 100 µM; in experiment [4], > 100 µM; in experiment [5], > 74.7 µM; in experiment [6], 28.3 µM. Moreover, the TGI in experiment [7] was > 100 µM; in experiment [8] it was > 66.7 µM; in [9], 47.7 µM.

(Values after PubChem BioAssay (NCI).)
